Test results published in PubChem BioAssay AID330 (DTP/NCI, 2004).
“And” between values parts separate entries of the source, which are not always exact repeats. Equal values may be shown once. Inconclusive results and toxic doses are left out.

System: P388 leukemia ip, CD2F1 mice, survival T/C
Assay: NCI In Vivo Anticancer Drug Screen. Data for tumor model P388 Leukemia (intraperitoneal) in CD2F1 (CDF1) mice
Settings: endpoint: median survival time, higher = longer survival
How it was run: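 Mice carrying the transplanted tumor received test compound or vehicle. Survival was recorded in each group, and the value is the treated-group measurement divided by that of the vehicle-treated control group.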

[1] = dose: 100.0 mg/kg/injection, schedule: Q01DX009 (ip), vehicle: saline with Tween-80
[2] = dose: 200.0 mg/kg/injection, schedule: Q01DX009 (ip), vehicle: saline with Tween-80
[3] = dose: 400.0 mg/kg/injection, schedule: Q01DX009 (ip), vehicle: saline with Tween-80
[4] = dose: 25.0 mg/kg/injection, schedule: Q01DX009 (ip), vehicle: Klucel (hydroxypropylcellulose) (HPC)
[5] = dose: 50.0 mg/kg/injection, schedule: Q01DX009 (ip), vehicle: Klucel (hydroxypropylcellulose) (HPC)
[6] = dose: 100.0 mg/kg/injection, schedule: Q01DX009 (ip), vehicle: Klucel (hydroxypropylcellulose) (HPC)
[7] = dose: 12.5 mg/kg/injection, schedule: Q01DX009 (ip), vehicle: saline
[8] = dose: 25.0 mg/kg/injection, schedule: Q01DX009 (ip), vehicle: saline
[9] = dose: 100.0 mg/kg/injection, schedule: Q04DX003 (ip), vehicle: saline with Tween-80
[10] = dose: 50.0 mg/kg/injection, schedule: Q01DX009 (ip), vehicle: saline with Tween-80
[11] = dose: 12.5 mg/kg/injection, schedule: Q01DX009 (ip), vehicle: saline with Tween-80
[12] = dose: 25.0 mg/kg/injection, schedule: Q01DX009 (ip), vehicle: saline with Tween-80
[13] = dose: 100.0 mg/kg/injection, schedule: Q04DX003 (ip), vehicle: saline

`FC12CCC(c3ccccc3)(CC1)CC2` was tested, and the T/C (dose: 100.0 mg/kg/injection, schedule: Q04DX003 (ip), vehicle: Klucel (hydroxypropylcellulose) (HPC)) was 98 % of control, the T/C (dose: 200.0 mg/kg/injection, schedule: Q04DX003 (ip), vehicle: Klucel (hydroxypropylcellulose) (HPC)) was 100 % of control and the T/C (dose: 400.0 mg/kg/injection, schedule: Q04DX003 (ip), vehicle: Klucel (hydroxypropylcellulose) (HPC)) was 103 % of control.

`O=C1C=CC(O)C2OC12` (stereo unspecified) was tested, and the T/C (dose: 5.0 mg/kg/injection, schedule: Q04DX002 (ip), vehicle: saline) was 111 % of control and the T/C (dose: 10.0 mg/kg/injection, schedule: Q04DX002 (ip), vehicle: saline) was 113 % of control.

`CC(C)=CCc1ccc2c(c1)CCCN2C` was tested, and the T/C (dose: 100.0 mg/kg/injection, schedule: Q04DX002 (ip), vehicle: saline with Tween-80) was 108 % of control and the T/C (dose: 200.0 mg/kg/injection, schedule: Q04DX002 (ip), vehicle: saline with Tween-80) was 108 % of control.

In the case of `CC1(C(=O)O)CCCC2(C)C3=C(CCCC3)CCC12` (stereo unspecified), the T/C [1] was 104 % of control, the T/C [2] was 100 % of control and the T/C [3] was 95 % of control.

In the case of `c1ccc2oc(C34OC5CC(CC(C5)O3)O4)nc2c1`, the T/C (dose: 100.0 mg/kg/injection, schedule: Q01DX001 (ip), vehicle: saline with Tween-80) was 101 % of control, the T/C (dose: 200.0 mg/kg/injection, schedule: Q01DX001 (ip), vehicle: saline with Tween-80) was 99 % of control and the T/C (dose: 400.0 mg/kg/injection, schedule: Q01DX001 (ip), vehicle: saline with Tween-80) was 100 % of control.

In the case of `COCC12CCC(OC)C34C5CC6(O)C(OC)C=C(C5C6OC(=O)c5ccccc5)C(C(OC)C13)C4N(C)C2` (stereo unspecified), the T/C [4] was 100 % of control, the T/C [5] was 95 % of control and the T/C [6] was 100 % of control.

For `O=C1CC2CCC(C1)N2C(=O)Oc1ccccc1`, the T/C (dose: 100.0 mg/kg/injection, schedule: Q01DX001 (ip), vehicle: Klucel (hydroxypropylcellulose) (HPC)) was 101 % of control, the T/C (dose: 200.0 mg/kg/injection, schedule: Q01DX001 (ip), vehicle: Klucel (hydroxypropylcellulose) (HPC)) was 93 % of control and the T/C (dose: 400.0 mg/kg/injection, schedule: Q01DX001 (ip), vehicle: Klucel (hydroxypropylcellulose) (HPC)) was 92 % of control.

With `O=C1C(CCl)=CS(=O)(=O)c2ccccc21` the T/C (dose: 6.25 mg/kg/injection, schedule: Q01DX009 (ip), vehicle: saline) was 109 % of control, the T/C [7] was 116 % of control and the T/C [8] was 100 % of control.

For `Cc1ccc2c(c1)CN(C13CC4CC(CC(C4)C1)C3)CO2`, the T/C (dose: 66.0 mg/kg/injection, schedule: Q04DX003 (ip), vehicle: saline with Tween-80) was 95 % of control, the T/C [9] was 100 % of control and the T/C (dose: 150.0 mg/kg/injection, schedule: Q04DX003 (ip), vehicle: saline with Tween-80) was 100 % of control. The T/C (dose: 200.0 mg/kg/injection, schedule: Q04DX003 (ip), vehicle: saline with Tween-80) was 105 % of control and the T/C (dose: 400.0 mg/kg/injection, schedule: Q04DX003 (ip), vehicle: saline with Tween-80) was 115 % of control.

With `CCS1=C(C(C)=O)C(=O)OC(C)C1` (stereo unspecified) the T/C (dose: 50.0 mg/kg/injection, schedule: Q01DX005 (ip), vehicle: saline) was 100 % of control, the T/C (dose: 100.0 mg/kg/injection, schedule: Q01DX005 (ip), vehicle: saline) was 100 % of control and the T/C (dose: 200.0 mg/kg/injection, schedule: Q01DX005 (ip), vehicle: saline) was 106 % of control.

With `O=C(N/N=c1/sc2ccccc2n1Cc1ccccc1)c1ccncc1` the T/C (dose: 6.25 mg/kg/injection, schedule: Q01DX009 (ip), vehicle: Klucel (hydroxypropylcellulose) (HPC)) was 106 % of control, the T/C (dose: 12.5 mg/kg/injection, schedule: Q01DX009 (ip), vehicle: Klucel (hydroxypropylcellulose) (HPC)) was 100 % of control and the T/C [4] was 89 % of control.

`CCOC1(C)OC2OC(COC(C)=O)C(OC(C)=O)C(OC(C)=O)C2O1` (stereo unspecified) was tested, and the T/C (dose: 4.0 mg/kg/injection, schedule: Q01DX009 (ip), vehicle: other) was 95 % of control, the T/C (dose: 8.0 mg/kg/injection, schedule: Q01DX009 (ip), vehicle: other) was 99 % of control and the T/C (dose: 16.0 mg/kg/injection, schedule: Q01DX009 (ip), vehicle: other) was 102 % of control. The T/C (dose: 32.0 mg/kg/injection, schedule: Q01DX009 (ip), vehicle: other) was 104 % of control, the T/C (dose: 50.0 mg/kg/injection, schedule: Q01DX009 (ip), vehicle: other) was 95 % of control and the T/C (dose: 64.0 mg/kg/injection, schedule: Q01DX009 (ip), vehicle: other) was 98 % of control. The T/C (dose: 100.0 mg/kg/injection, schedule: Q01DX009 (ip), vehicle: other) was 100 % of control, the T/C (dose: 200.0 mg/kg/injection, schedule: Q01DX009 (ip), vehicle: other) was 104 % of control and the T/C (dose: 400.0 mg/kg/injection, schedule: Q01DX009 (ip), vehicle: other) was 95 % of control.

`ClCCN1c2ccc3ccccc3c2Sc2ccc3ccccc3c21` was tested, and the T/C (dose: 50.0 mg/kg/injection, schedule: Q01DX005 (ip), vehicle: saline with Tween-80) was 95 % of control and the T/C (dose: 100.0 mg/kg/injection, schedule: Q01DX005 (ip), vehicle: saline with Tween-80) was 89 % of control.

In the case of `COc1ccc2c(c1)CCC1C2CCC2(C)C1CCC2(O)CCN=[N+]=[N-]` (stereo unspecified), the T/C [10] was 104 % of control, the T/C [1] was 101 % of control and the T/C [2] was 101 % of control.

With `CCOc1ccc(C(C#N)N(C)C)cc1OCC` (stereo unspecified) the T/C [11] was 105 % of control, the T/C [12] was 100 % of control and the T/C [10] was 86 % of control and 92 % of control.

For `COc1cccc(C[n+]2ccccc2C#N)c1`, the T/C [7] was 100 % of control, the T/C [8] was 106 % of control and the T/C (dose: 50.0 mg/kg/injection, schedule: Q01DX009 (ip), vehicle: saline) was 100 % of control and 96 % of control.

For `Cn1c2nc(-[n+]3ccc(N4CCOCC4)cc3)nc-2c([O-])n(C)c1=O`, the T/C [13] was 100 % of control, the T/C (dose: 200.0 mg/kg/injection, schedule: Q04DX003 (ip), vehicle: saline) was 101 % of control and the T/C (dose: 400.0 mg/kg/injection, schedule: Q04DX003 (ip), vehicle: saline) was 100 % of control.

`O=[N+]([O-])c1ccccc1N=Nc1c(-c2ccccc2)nn(C(=S)S)c1-c1ccccc1` was tested, and the T/C (dose: 25.0 mg/kg/injection, schedule: Q04DX002 (ip), vehicle: Klucel (hydroxypropylcellulose) (HPC)) was 99 % of control, the T/C (dose: 50.0 mg/kg/injection, schedule: Q04DX002 (ip), vehicle: Klucel (hydroxypropylcellulose) (HPC)) was 101 % of control and the T/C (dose: 100.0 mg/kg/injection, schedule: Q04DX002 (ip), vehicle: Klucel (hydroxypropylcellulose) (HPC)) was 105 % of control. For the same compound, the T/C (dose: 200.0 mg/kg/injection, schedule: Q04DX002 (ip), vehicle: Klucel (hydroxypropylcellulose) (HPC)) was 112 % of control.

For `O=C(Nc1ccc(C2=NCCN2)cc1)c1cc2ccc(C3=NCCN3)cc2o1`, the T/C (dose: 100.0 mg/kg/injection, schedule: Q04DX003 (ip), vehicle: suspension in saline) was 104 % of control and the T/C (dose: 200.0 mg/kg/injection, schedule: Q04DX003 (ip), vehicle: suspension in saline) was 119 % of control.

For `CN(C)P(N)(N)=O`, the T/C (dose: 100.0 mg/kg/injection, schedule: Q01DX009 (ip), vehicle: saline) was 105 % of control, the T/C (dose: 200.0 mg/kg/injection, schedule: Q01DX009 (ip), vehicle: saline) was 95 % of control and the T/C (dose: 400.0 mg/kg/injection, schedule: Q01DX009 (ip), vehicle: saline) was 100 % of control.

`CCc1nc2ccccc2c(=O)n1C(C)C` was tested, and the T/C (dose: 100.0 mg/kg/injection, schedule: Q04DX002 (ip), vehicle: saline) was 100 % of control, the T/C (dose: 200.0 mg/kg/injection, schedule: Q04DX002 (ip), vehicle: saline) was 106 % of control and the T/C (dose: 400.0 mg/kg/injection, schedule: Q04DX002 (ip), vehicle: saline) was 104 % of control.

`O=C1C=C(c2ccccc2)C(c2ccccc2)C1` (stereo unspecified) was tested, and the T/C [10] was 89 % of control, the T/C [1] was 93 % of control and the T/C [2] was 93 % of control. The T/C [3] was 93 % of control.

With `CC1(C)CC(=O)C=C(NCCCCCCNC2=CC(=O)CC(C)(C)C2)C1` the T/C [5] was 113 % of control, the T/C [6] was 103 % of control and the T/C (dose: 200.0 mg/kg/injection, schedule: Q01DX009 (ip), vehicle: Klucel (hydroxypropylcellulose) (HPC)) was 95 % of control.

In the case of `CC1CN=C(c2ccc(NC(=O)Nc3ccc(C(=O)Nc4ccc(C5=NCC(C)N5)cc4)cc3)cc2)N1` (stereo unspecified), the T/C [11] was 195 % of control, the T/C [12] was 159 % of control and 213 % of control and the T/C (dose: 25.0 mg/kg/injection, schedule: Q04DX003 (ip), vehicle: saline with Tween-80) was 116 % of control. The T/C [10] was 95 % of control, the T/C [9] was 150 % of control and the T/C [13] was 163 % of control.
